target: Integrin alpha-IIb/beta-3 (Homo sapiens, UniProt P08514+P05106); experiment: ChEBML_90196
From the text: In vitro inhibition of ADP-mediated human gel filtered platelet aggregation.

Sequence of Integrin alpha-IIb/beta-3 (P05106 27-788 limits assumed): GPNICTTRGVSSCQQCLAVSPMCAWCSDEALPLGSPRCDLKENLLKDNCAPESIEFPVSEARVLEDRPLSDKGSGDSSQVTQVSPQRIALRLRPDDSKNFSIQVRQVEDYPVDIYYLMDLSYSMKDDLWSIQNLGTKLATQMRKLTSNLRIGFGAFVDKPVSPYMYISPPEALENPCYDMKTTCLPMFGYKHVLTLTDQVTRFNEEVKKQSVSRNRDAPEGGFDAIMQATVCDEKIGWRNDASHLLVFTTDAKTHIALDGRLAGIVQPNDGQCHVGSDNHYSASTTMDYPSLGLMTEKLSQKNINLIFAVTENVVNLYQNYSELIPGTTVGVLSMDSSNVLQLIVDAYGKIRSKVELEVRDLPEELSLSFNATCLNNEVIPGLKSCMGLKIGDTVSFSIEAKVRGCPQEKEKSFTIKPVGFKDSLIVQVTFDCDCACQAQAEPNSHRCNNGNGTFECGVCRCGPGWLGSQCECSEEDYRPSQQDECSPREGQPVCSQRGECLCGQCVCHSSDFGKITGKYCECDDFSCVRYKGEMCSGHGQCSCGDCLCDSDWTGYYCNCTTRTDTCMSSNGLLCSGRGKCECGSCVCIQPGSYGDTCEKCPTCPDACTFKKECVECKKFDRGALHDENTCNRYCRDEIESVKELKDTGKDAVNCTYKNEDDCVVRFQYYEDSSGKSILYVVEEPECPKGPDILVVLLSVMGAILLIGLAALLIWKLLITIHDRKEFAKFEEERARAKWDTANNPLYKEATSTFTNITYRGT
Sequence of Integrin alpha-IIb/beta-3 (P08514 32-887 limits assumed): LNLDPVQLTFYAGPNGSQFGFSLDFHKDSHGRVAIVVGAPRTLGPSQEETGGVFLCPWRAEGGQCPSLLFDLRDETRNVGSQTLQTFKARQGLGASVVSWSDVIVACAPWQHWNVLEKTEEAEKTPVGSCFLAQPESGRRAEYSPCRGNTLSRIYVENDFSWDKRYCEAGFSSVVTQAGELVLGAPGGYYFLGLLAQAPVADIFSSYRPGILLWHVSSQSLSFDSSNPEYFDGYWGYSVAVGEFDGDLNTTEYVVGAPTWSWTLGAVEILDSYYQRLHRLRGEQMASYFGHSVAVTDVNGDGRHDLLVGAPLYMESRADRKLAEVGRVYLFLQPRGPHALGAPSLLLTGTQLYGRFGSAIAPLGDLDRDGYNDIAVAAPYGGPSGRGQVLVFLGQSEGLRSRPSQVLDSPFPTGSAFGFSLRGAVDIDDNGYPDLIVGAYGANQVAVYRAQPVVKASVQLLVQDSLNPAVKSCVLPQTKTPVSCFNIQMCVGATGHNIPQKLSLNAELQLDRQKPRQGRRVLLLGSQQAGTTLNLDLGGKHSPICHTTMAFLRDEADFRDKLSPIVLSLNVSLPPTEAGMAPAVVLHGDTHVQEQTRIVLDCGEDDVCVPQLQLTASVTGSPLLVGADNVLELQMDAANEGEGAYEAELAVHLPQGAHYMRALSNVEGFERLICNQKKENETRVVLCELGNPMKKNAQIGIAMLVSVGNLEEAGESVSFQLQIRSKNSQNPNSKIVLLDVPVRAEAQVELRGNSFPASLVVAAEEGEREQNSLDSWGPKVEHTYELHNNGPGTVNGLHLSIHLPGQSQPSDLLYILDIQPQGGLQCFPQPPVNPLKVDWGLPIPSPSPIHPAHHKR
Sequence of Integrin alpha-IIb/beta-3 (P08514 891-1039 limits assumed): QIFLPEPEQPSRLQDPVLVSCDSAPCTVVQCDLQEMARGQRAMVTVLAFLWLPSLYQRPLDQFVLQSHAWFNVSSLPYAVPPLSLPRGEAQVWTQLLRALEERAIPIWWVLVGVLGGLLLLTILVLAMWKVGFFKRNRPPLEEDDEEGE

Compared with `NCCCCCCOc1ccc(CCC(=O)O)cc1`, `CCCCCC(=O)N[C@@H](Cc1ccc(OCCCCCCN)cc1)C(=O)O` is lower in IC50: over 100 µM for the first, 3.8 µM for the second. The second is the more potent here.

Compared with `NCCCCCCOc1ccc(C[C@H](NS(=O)(=O)Cc2ccccc2)C(=O)O)cc1`, `NCCCCCCCCOc1ccc(C[C@H](NC(=O)OCc2ccccc2)C(=O)O)cc1` [3-[4-(8-Amino-octyloxy)-phenyl]-2-benzyloxycarbonylamino-propionic acid] is 20-fold higher in IC50: 2 µM for the first, 40 µM for the second. The first is the more potent here.

Going from `O=C(N[C@@H](Cc1ccc(OCCCc2ccccc2)cc1)C(=O)O)OCc1ccccc1` to `CC(C)(C)NCCCOc1ccc(C[C@H](NC(=O)OCc2ccccc2)C(=O)O)cc1` [(S)-2-Benzyloxycarbonylamino-3-[4-(3-tert-butylamino-propoxy)-phenyl]-propionic acid], the IC50 falls from over 1000 µM to 22 µM. The second is the more potent here.

For `CC(C)(C)NCC(O)COc1ccc(C[C@H](NC(=O)OCc2ccccc2)C(=O)O)cc1` (some centres not stated), the IC50 was 27 µM.

— BindingDB's records for doi:10.1021/jm00102a020 (Merck Research Laboratories, 1993)
